{"source": "patent US20090298938A1", "about": "“USE OF SEMI SYNTHETIC ANALOGUES OF BOSWELLIC ACIDS FOR ANTICANCER ACTIVITY” (COUNCIL OF SCIENTIFIC & INDUSTRIAL RESEARCH, priority 2008, published 2009)", "key": {"[1]": {"tested_on": "HT-29 colon cancer cells", "assay": "In vitro cytotoxicity, SRB assay, HT-29", "assay_type": "cell-based, human", "protocol": "(§1) The semi-synthetic analogues of formula 1 have been subjected to in vitro cytotoxicity screening in a panel of human cancer cell lines using following methodology. The human cancer cell lines were obtained either from National Center for Cell Science, Pune or National Cancer Institute, Fredrick, Md., USA. Cells were grown in tissue culture flasks in complete growth medium (RPMI-1640 medium with 2 mM glutamine, 100 µg/ml streptomycin, pH 7.4, sterilized by filtration and supplemented with 10% sterilized fetal calf serum and 100 units/ml penicillin before use) at 37° C. in an atmosphere of 5% CO2 and 90% relative humidity in a carbon dioxide incubator. The cells at sub-confluent stage were harvested from flask by treatment with trypsin (0.05% trypsin in PBS containing 0.02% EDTA) and suspended in complete growth medium. Cells with cell viability of more than 97% by trypan blue exclusion technique were used for determination of cytotoxicity.\n(§2) Test material were dissolved in DMSO (dimethyl sulphoxide) to obtain a stock solution of 2×10^−2M. The stock solution was serially diluted with complete growth medium containing 50 μg/ml of gentamycin to obtain working test solutions of required concentrations.\n(§3) The suspension of human cancer cell lines of required cell density in complete growth medium was prepared and cell suspension (100 μl/well) of each cell line was added to wells of 96-well tissue culture plate. Suitable blanks and controls were also included. The plates were incubated for 24 hrs in a carbon dioxide incubator.\n(§4) The working test solutions of different concentrations (100 μl/well) were added after 24 hr incubation. The plates were further incubated for 48-hrs after addition of the test materials. After incubation, the cell growth was stopped by gently layering of 50 μl of TCA (50% trichloroacetic acid) on top of the medium in all the wells. The plates were incubated at 4° C. for one hour to fix the cells attached to bottom of the wells. Liquids of all the wells were gently pipetted out and discarded. The plates were washed five times with distilled water to remove TCA, growth medium, low molecular weight metabolites, serum proteins etc. The plates were air dried.\n(§5) Cell growth was measured by staining with sulforhodamine B dye (SRB). The SRB solution (100 μl, 0.4% in 1% acetic acid) was added to each well and the plates were incubated at room temperature for 30 minutes. The unbound SRB was quickly removed by washing the wells five times with 1% acetic acid solution and plates were air dried. Tris buffer (100 μl, 0.01 M, pH 10.4) was added to all the wells and plates were gently stirred for 5 minutes on a mechanical stirrer. The optical density was recorded on ELISA reader at 540 nm.\n(§6) Cell growth in the presence of test material was calculated in terms of the percentage of growth inhibition. The in vitro cytotoxicity of four natural boswellic acid i.e. boswellic acid, acetyl boswellic acid, 11-keto-boswellic acids, acetyl-11-ketio-boswellic acid on various cancer cell lines has been examined and typical results are given in the succeeding table. Based on their cytotoxicity profile the analogues of formula 1 were studied for inhibition of cell proliferation by using MTT assay method. […] The induction of apoptosis in HL-60 cells was also validated by generation of DNA fragmentation.\n(§7) Assay of cytotoxicity potential of test materials is a primary standard procedure for seeking lead molecules for development of anti-cancer leads. Human cancer cells after trypsinization into single cell suspension were grown in 96-well culture plate for 24 hr. Cells were treated with indicated doses of test analogues and incubated in CO2 incubator for 48 hr. Thereafter, cells were stained with sulforhodamine B dye, and the bound dye was eluted to measure the optical density indicating cell growth in Elisa Reader at 540 nm [Monks et al., 1991]. […]"}, "[2]": {"tested_on": "SW-620 colon cancer cells", "assay": "In vitro cytotoxicity, SRB assay, SW-620", "assay_type": "cell-based, human", "protocol": "as §1, §2, §3, §4, §5, §6, §7"}, "[3]": {"tested_on": "Colo-205 colon cancer cells", "assay": "In vitro cytotoxicity, SRB assay, Colo-205", "assay_type": "cell-based, human", "protocol": "as §1, §2, §3, §4, §5, §6, §7"}, "[4]": {"tested_on": "Hep-2 cells", "assay": "In vitro cytotoxicity, SRB assay, Hep-2", "assay_type": "cell-based, human", "protocol": "as §1, §2, §3, §4, §5, §6, §7"}, "[5]": {"tested_on": "PC-3 cells", "assay": "In vitro cytotoxicity, SRB assay, PC-3", "assay_type": "cell-based, human", "protocol": "as §1, §2, §3, §4, §5, §6, §7"}, "[6]": {"tested_on": "Ehrlich Ascitic Carcinoma solid tumor", "assay": "Ehrlich ascitic tumor (solid) growth inhibition in mice", "assay_type": "in vivo, Swiss albino mice", "settings": "22 mg/kg intraperitoneally, 9 days, evaluated day 13, positive control", "protocol": "FIG. 9. Tumor growth inhibition by boswellic acid analogs. Mice treated intraperitoneally with a compound (designated “c”) of formula 1, wherein R3=COCH2CH2CH3, R1=H, R4+R5=O, have shown 22% tumor growth inhibition at a dose of about 50 mg/kg of body weight, and 41% tumor growth inhibition at a dose of 100 mg/kg of body weight.\nSwiss albino mice of 6-8 weeks, weighing 18-23 g of single sex were used. For the initiation of experiment, 1×10^7 cells of EAC (Ehrlich Ascitic Carcinoma) cells were transplanted intramuscularly (i.m.) in 32 mice for the development of solid tumors. The day of tumor transplantation was assigned as day 0. Next day (day-1) animals were randomly selected and divided into four groups having equal number of mice in each group of similar body wt. Groups I and II were treated with compound of formula 1 where R3=COCH2CH2CH3, R1=H, R4+R5=O at the dose of 50 mg/kg b, wt and 100 mg/kg b. wt. intraperitoneally, respectively. Group III received 0.2 ml of 0.85% normal saline and served as normal control while group IV serving as positive control was treated with 5-FU (22 mg/kg b. wt.) intraperitoneally. The total duration of treatment was of 9 days. The evaluation of effect of treatment on tumor was done on 13th day. Ehrlich ascites cells (1×10^7) were injected intramuscularly in the right thigh muscles and on the following day animals started receiving treatment intraperitoneally in 0.5% Tween-20 daily at the indicated doses for 9 days. The growth of tumor and the efficacy of compound of formula 1, where R3=COCH2CH2CH3, R1=H, R4+R5=O in inhibiting tumor growth were evaluated on day 13 in terms of the weight of the tumor in treated and control groups count. The determination of solid tumor growth inhibition against EAT was calculated as percent tumor growth regression according to the following: […]"}, "[7]": {"tested_on": "HL-60 cells", "assay": "Apoptosis induction, annexin V-FITC/PI flow cytometry", "assay_type": "cell-based, human", "settings": "HL-60, 15 μM, 6 hr", "protocol": "FIG. 2. Comparative efficacy of apoptosis induction: Measurement by flow cytometry. The effects of boswellic acid on the relative efficiency of induction of apoptosis and necrosis in HL-60 cells were analyzed by flow cytometry. Cells were incubated with each analog for 6 hrs and stained with annexin V-FITC labeled. The dot plots are representative of one of the two separate experiments. Values in the lower right quadrant represent the apoptotic population in the UR as post-apoptotic and in the UL as necrotic. Where a=compound of formula 1, R3=COCH2CH2CH3, […], R4=[…], b=compound of formula 1, R3=COCH2CH3R1=H, R4=[…], c=compound of formula 1, R3=COCH2CH2CH3, […], R4+R5=O, d=compound of formula 1, […], R3=COCH2CH3, R4=[…], e=compound of formula 1, R3=COCH2CH2CH3, […], R4=[…], f=β-boswellic acid. Compounds of formula 1 where […], R3=COCH2CH3R3=[…]; R3=COCH2CH2CH3, […], R4=[…] and natural β-boswellic acid produced low level of apoptotic cell population (approx. 10%) compared to compound of formula 1 where R3=COCH2CH2CH3, […], R4=[…] (17%), […], R3=COCH2CH3, R4=[…] (30%) and where R3=COCH2CH2CH3, […], R4+R5=O (23%), although the combined apoptotic and post-apoptotic population was about 32% with the last three analogs. Confirmation that boswellic acid analogs are potent inducers of apoptosis may also be obtained from DNA fragmentation assay. During the early events of apoptosis, phospholipid phosphatidyl serine of plasma membrane is externalized, which has very high affinity for annexinV antibody. Effect of a single concentration (15 μM) of each boswellic acid analogs on the relative efficiency of induction of apoptosis and necrosis in HL-60 cells was analyzed by flow cytometry. Cells were incubated with each analog for 6 hr and stained with Annexin V-FITC/PI. Camptothecin at 4 μM was used as positive control. There after, cells were washed and stained with FITC conjugated annexinV antibody and propidium iodide. The cells (10,000) were analysed by flow cytometery (BD, LSR) using ProQuest software."}, "[8]": {"settings": "Conc. 5 × 10^−5, 48 hr, natural boswellic acids"}, "[9]": {"settings": "Conc. 5 × 10^5 (r27-r29: 5 × 10^−5), 48 hr, Table 1"}}}
{"compound": "O=c1[nH]cc(F)c(=O)[nH]1", "note": "[Compound 5-FU, 5-FU, reference compound]", "values": [{"measurement": "Growth inhibition % HT-29 Colon", "setting": "[1]; Conc. 1 × 10^4, Table 2", "value": 21, "unit": "%"}, {"measurement": "Growth inhibition % HT-29 Colon", "setting": "[1]; Conc. 1 × 10^5, Table 2", "value": 40, "unit": "%"}, {"measurement": "Growth inhibition % SW-620 Colon", "setting": "[2]; Conc. 1 × 10^4, Table 2", "value": 7, "unit": "%"}, {"measurement": "Growth inhibition % SW-620 Colon", "setting": "[2]; Conc. 1 × 10^5, Table 2", "value": 0, "unit": "%"}, {"measurement": "Growth inhibition % Colo-205 Colon", "setting": "[3]; Conc. 1 × 10^4, Table 2", "value": 39, "unit": "%"}, {"measurement": "Growth inhibition % Colo-205 Colon", "setting": "[3]; Conc. 1 × 10^5, Table 2", "value": 43, "unit": "%"}, {"measurement": "Growth inhibition % Hep-2", "setting": "[4]; Conc. 1 × 10^4, Table 2", "value": 5, "unit": "%"}, {"measurement": "Growth inhibition % Hep-2", "setting": "[4]; Conc. 1 × 10^5, Table 2", "value": 14, "unit": "%"}, {"measurement": "Growth inhibition % PC-3", "setting": "[5]; Conc. 1 × 10^4, Table 2", "value": 52, "unit": "%"}, {"measurement": "Growth inhibition % PC-3", "setting": "[5]; Conc. 1 × 10^5, Table 2", "value": 37, "unit": "%"}, {"measurement": "tumor growth inhibition", "setting": "[6]", "value": 56, "unit": "%"}]}
{"compound": "CCC(=O)OC1CCC2(C)C(CCC3(C)C2CC=C2C4C(C)C(C)CCC4(C)CCC23C)C1(C)C(=O)O", "note": "(stereo not drawn) [d]", "values": [{"measurement": "combined apoptotic and post-apoptotic population", "setting": "[7]", "value": "about 32%"}, {"measurement": "apoptotic cell population", "setting": "[7]; listed as R1=H, R3=COCH2CH3, R4=R5=H", "value": 30, "unit": "%"}]}
{"compound": "C[C@H]1[C@H](C)CC[C@]2(C)CC[C@]3(C)C(=CC[C@@H]4[C@@]5(C)CC[C@@H](O)[C@](C)(C(=O)O)[C@@H]5CC[C@]43C)[C@H]12", "note": "[β-boswellic acid, reference compound]", "values": [{"measurement": "apoptotic cell population", "setting": "[7]", "value": "approx. 10%"}]}
{"compound": "CCC(=O)OC1CCC2(C)C(CCC3(C)C2CC=C2C4C(C)C(C)CCC4(C)CCC23C)C1(C)C(=O)O", "note": "(stereo not drawn) [b]", "values": [{"measurement": "apoptotic cell population", "setting": "[7]; listed as R1=H, R3=COCH2CH3R3=R4=H", "value": "approx. 10%"}]}
{"compound": "C[C@H]1[C@H](C)CC[C@]2(C)CC[C@]3(C)C(=CC[C@@H]4[C@@]5(C)CC[C@@H](O)[C@](C)(C(=O)O)[C@@H]5CC[C@]43C)[C@H]12", "note": "[Boswellic acid]", "values": [{"measurement": "Growth inhibition % HT-29 Colon", "setting": "[1]; [8]", "value": 69, "unit": "%"}, {"measurement": "Growth inhibition % SW-620 Colon", "setting": "[2]; [8]", "value": 61, "unit": "%"}, {"measurement": "Growth inhibition % Colo-205 Colon", "setting": "[3]; [8]", "value": 86, "unit": "%"}, {"measurement": "Growth inhibition % Hep-2", "setting": "[4]; [8]", "value": 45, "unit": "%"}, {"measurement": "Growth inhibition % PC-3", "setting": "[5]; [8]", "value": 100, "unit": "%"}]}
{"compound": "CCC(=O)OC1CCC2(C)C(CCC3(C)C2CC=C2C4C(C)C(C)CCC4(C)CCC23C)C1(C)C(=O)O", "note": "(stereo not drawn) [1, R3O = —COCH2CH3, R1 = H, R4 = R5 = H]", "values": [{"measurement": "Growth inhibition % HT-29 Colon", "setting": "[1]; [9]", "value": 94, "unit": "%"}, {"measurement": "Growth inhibition % SW-620 Colon", "setting": "[2]; [9]", "value": 94, "unit": "%"}, {"measurement": "Growth inhibition % Colo-205 Colon", "setting": "[3]; [9]", "value": 86, "unit": "%"}, {"measurement": "Growth inhibition % Hep-2", "setting": "[4]; [9]", "value": 86, "unit": "%"}, {"measurement": "Growth inhibition % PC-3", "setting": "[5]; [9]", "value": 98, "unit": "%"}]}
{"compound": "CC(=O)OC1CCC2(C)C(CCC3(C)C2CC=C2C4C(C)C(C)CCC4(C)CCC23C)C1(C)C(=O)O", "note": "(stereo not drawn) [1, R3O = —COCH3, R1 = H, R4 = R5 = H]", "values": [{"measurement": "Growth inhibition % HT-29 Colon", "setting": "[1]; [9]", "value": 34, "unit": "%"}, {"measurement": "Growth inhibition % SW-620 Colon", "setting": "[2]; [9]", "value": 38, "unit": "%"}, {"measurement": "Growth inhibition % Colo-205 Colon", "setting": "[3]; [9]", "value": 34, "unit": "%"}, {"measurement": "Growth inhibition % Hep-2", "setting": "[4]; [9]", "value": 41, "unit": "%"}, {"measurement": "Growth inhibition % PC-3", "setting": "[5]; [9]", "value": 54, "unit": "%"}]}
